Data reported in patent US20110053900A1, “PROGESTERONE ANTAGONISTS SUCH AS CDB-4124 IN THE TREATMENT OF BREAST CANCER” (Repros Therapeutics inc, priority 2008, published 2011).

Columns and labels:
[1] = target: T1, glucocorticoid receptor (rbGR) (Oryctolagus cuniculus, UniProt P59667); test: Glucocorticoid receptor binding; parameters: species or system rabbit
T1 construct: cytosol containing PR or GR were prepared in TEGMD buffer; from tissue; host or cells: thymus of estradiol-primed immature rabbits (cytosol)
T1 sequence (P59667 1-772): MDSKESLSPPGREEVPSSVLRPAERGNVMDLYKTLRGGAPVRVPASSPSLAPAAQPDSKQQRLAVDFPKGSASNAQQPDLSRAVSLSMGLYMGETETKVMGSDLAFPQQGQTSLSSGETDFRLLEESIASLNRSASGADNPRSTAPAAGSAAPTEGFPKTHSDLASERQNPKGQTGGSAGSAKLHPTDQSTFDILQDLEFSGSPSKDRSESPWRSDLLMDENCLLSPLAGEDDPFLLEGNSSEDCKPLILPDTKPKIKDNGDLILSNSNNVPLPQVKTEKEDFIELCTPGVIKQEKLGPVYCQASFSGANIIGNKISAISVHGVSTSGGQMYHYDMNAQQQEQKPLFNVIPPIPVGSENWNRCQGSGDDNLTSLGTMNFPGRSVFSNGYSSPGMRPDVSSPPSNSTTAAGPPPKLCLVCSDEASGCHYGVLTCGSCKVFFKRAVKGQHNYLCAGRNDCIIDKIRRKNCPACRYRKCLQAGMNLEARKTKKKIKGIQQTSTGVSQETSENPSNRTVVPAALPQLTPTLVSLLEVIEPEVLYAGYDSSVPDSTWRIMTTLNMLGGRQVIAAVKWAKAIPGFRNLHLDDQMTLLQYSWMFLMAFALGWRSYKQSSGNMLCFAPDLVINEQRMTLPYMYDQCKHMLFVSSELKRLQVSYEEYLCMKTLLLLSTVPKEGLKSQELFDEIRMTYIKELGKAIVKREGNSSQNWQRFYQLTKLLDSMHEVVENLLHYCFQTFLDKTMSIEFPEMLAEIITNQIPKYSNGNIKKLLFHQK
Description: Certain antiprogestins were tested in receptor-binding assays for their ability to bind rabbit progesterone receptor (rbPR) and glucocorticoid receptor (rbGR). […] For PR binding, the cytosol was incubated with 6 nM 1,2-[^3H]progesterone (50.0 Ci/mmole) and competitors were added at concentrations from 2 to 100 nM. For binding to GR, the cytosol was incubated with 6 nM 6,7-[^3H]-dexamethasone (40 Ci/mmol) and test compounds were added at concentrations from 20 to 100 nM. After overnight incubation at 4° C., bound and unbound [^3H] steroids were separated by addition of dextran-coated charcoal and centrifugation at 2100×g for 15 min at 4
C. Supernatants containing the [3H]-steroid receptor complexes were decanted into vials containing 4 ml Optifluor (Packard Instrument Co.), vortexed, equilibrated in a liquid scintillation counter for 30 minutes and then counted for 2 minutes. […] The standards for the PR and GR assays were unlabeled progesterone and dexamethasone, respectively.

rabbit uterus = test: Anti-McGinty and anti-Clauberg assays; assay type: in vivo; conditions: average of anti-McGinty and anti-Clauberg results relative to CDB-2914 = 1.00
Text: Also given in the Table are the relative biological activities of the same compounds in the rabbit uterus by the anti-McGinty and anti-Clauberg assays. Compound CDB-2914 (listed at the end of the Table) was used as the control or reference compound (rabbit Biological Activity=1.00) for these experiments because results of experiments using CDB-2914 have been published before (Hild-Petito et al., 1996; Passaro et al., 1997; Reel et al., 1998; Lamer et al., 2000). For the anti-McGinty test, immature female rabbits received a subcutaneous injection of 5 μg estradiol in 10% ethanol/sesame oil daily for 6 consecutive days. On day 7, animals underwent sterile abdominal surgery to ligate a 3-4 cm segment of both uterine horns. The test compound in appropriate solvent was injected intraluminally into the ligated segment of one uterine horn and vehicle alone into the other. A stimulating dose of progesterone (267 μg/day) was administered subcutaneously to each rabbit daily for the next three days to induce endometrial proliferation. All animals were sacrificed at day 10 for removal of the uterus where a segment central to the ligatures was removed and fixed in 10% neutral buffered formalin and submitted for histological processing. Five micron sections stained with hematoxylin and cosin were evaluated microscopically for the degree of endometrial glandular proliferation. The percent inhibition of endometrial proliferation for each rabbit was calculated and the mean of the group of five animals recorded. For the Anti-Clauberg test, immature female rabbits received a subcutaneous injection of 5 μg estradiol in 10% ethanol/sesame oil daily for 6 consecutive days. On day 7, animals received progesterone by subcutaneous injection (160 μg/day) and the experimental compound in appropriate vehicle orally or subcutaneously for five consecutive days. One group of rabbits received progesterone only. Twenty-four hours after the last dose, all animals were sacrificed for removal of the uterus which was cleaned of all fat and connective tissue, weighed to the nearest 0.2 mg and placed in 10% neutral buffered formalin for subsequent histological processing. Five micron sections stained with hematoxylin and eosin were evaluated microscopically for the degree of endometrial glandular proliferation. The percent inhibition of endometrial proliferation at each dose level of the test compound was derived by comparison with progesterone-stimulated animals alone. The data presented in Table 1 (rabbit Biol. Act.) reflects the average of the results obtained for each compound by the anti-McGinty and anti-Clauberg assays relative to CDB-2914.

[2] = tested on: rabbit progesterone receptor (rbPR) and glucocorticoid receptor (rbGR); test: Receptor-binding assays, ratio of relative binding affinities rbPR/rbGR; conditions: RBA = EC50 of standard/EC50 of test compound x 100
Description: Certain antiprogestins were tested in receptor-binding assays for their ability to bind rabbit progesterone receptor (rbPR) and glucocorticoid receptor (rbGR). Briefly, cytosol containing PR or GR were prepared in TEGMD buffer (10 mM Tris, pH 7.2, 1.5 mM EDTA, 0.2 mM sodium molybdate, 10% glycerol, 1 mM DTT) from uterus or thymus, respectively, of estradiol-primed immature rabbits. For PR binding, the cytosol was incubated with 6 nM 1,2-[^3H]progesterone (50.0 Ci/mmole) and competitors were added at concentrations from 2 to 100 nM. For binding to GR, the cytosol was incubated with 6 nM 6,7-[^3H]-dexamethasone (40 Ci/mmol) and test compounds were added at concentrations from 20 to 100 nM. After overnight incubation at 4° C., bound and unbound [^3H] steroids were separated by addition of dextran-coated charcoal and centrifugation at 2100×g for 15 min at 4
C. Supernatants containing the [3H]-steroid receptor complexes were decanted into vials containing 4 ml Optifluor (Packard Instrument Co.), vortexed, equilibrated in a liquid scintillation counter for 30 minutes and then counted for 2 minutes. The ECso (Effective Concentration) for each standard curve and each of the compound curves was determined by entering the counting data into a four parameter sigmoidal computer program (RiaSmart® Immunoassay Data Reduction Program, Packard Instrument Co., Meriden, Conn.). Relative binding affinity (RBA) for each compound was calculated using the following equation: EC50 of standard/EC50 of test compound×100. The standards for the PR and GR assays were unlabeled progesterone and dexamethasone, respectively. The results of these experiments are summarized in Table 1, as a ratio of the relative binding affinities of each compound for the rbPR and rbGR receptors (rbPR/rbGR).

In the case of `CC(=O)O[C@]1(C(C)=O)CC[C@H]2[C@@H]3CCC4=CC(=O)CCC4=C3[C@@H](c3ccc(N(C)C)cc3)C[C@@]21C` [CDB-2914, 17α-acetoxy-11β-(4-N,N-dimethylaminophenyl)-19-norpregna-4,9-dien-3,20-dione, reference compound], the “anti-glucocorticoid receptor activity / glucocorticoid receptor binding (in words)” value [1] is reported as “moderately active in glucocorticoid receptor binding”, the “rabbit Biol. Act.” value (rabbit uterus) is reported as 1.00 and the “rbPR/rbGR (ratio of the relative binding affinities for rbPR and rbGR)” value [2] is reported as 1.07.
